Tests used:
[1] = cited from earlier work
[2] = rat; cited from earlier work
[3] = cited from earlier work; remark: listed apart in the source
human D3 receptor = human D3 receptor (Homo sapiens, UniProt P35462); format: cell-based; conditions: D3 functional mitogenesis assay
hERG potassium channel = conditions: cited from earlier work
[4] = cited from earlier work; remark: listed apart in the source
P450 isoforms = conditions: cited from earlier work

Chain of human D3 receptor (P35462 whole entry): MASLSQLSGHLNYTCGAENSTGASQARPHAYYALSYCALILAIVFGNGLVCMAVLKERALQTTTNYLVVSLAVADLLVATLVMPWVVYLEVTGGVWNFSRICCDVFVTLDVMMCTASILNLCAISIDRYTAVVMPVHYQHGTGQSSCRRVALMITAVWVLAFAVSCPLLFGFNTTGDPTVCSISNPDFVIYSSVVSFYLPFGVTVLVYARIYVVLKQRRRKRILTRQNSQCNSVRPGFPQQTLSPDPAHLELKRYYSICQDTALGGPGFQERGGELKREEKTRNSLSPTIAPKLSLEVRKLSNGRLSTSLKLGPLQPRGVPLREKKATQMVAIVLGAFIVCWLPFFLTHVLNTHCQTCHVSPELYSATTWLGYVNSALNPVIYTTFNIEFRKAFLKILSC

functional activity at the D3 receptor (human D3 receptor) | SMILES | aqueous solubility [1] | CNS penetration [3] | further results
 | CCCN(CC[C@H]1CC[C@H](NC(=O)c2ccc3ccccc3c2)CC1)[C@H]1CCc2nc(N)sc2C1 [Compound 11] | excellent |  | 
 | Cc1nc(-c2cccc(C(=O)N[C@H]3CC[C@H](CCN4CCc5ccc(S(C)(=O)=O)cc5CC4)CC3)c2)no1 [SB-414796] |  | good | bioavailability [2]: excellent
full agonists | CCCN(CC[C@H]1CC[C@H](NS(=O)(=O)c2cccnc2Cl)CC1)[C@H]1CCc2nc(N)sc2C1 [Compound 52] |  |  | 
 | CCCN(CC[C@H]1CC[C@H](NC(=O)/C=C/c2ccccc2)CC1)[C@H]1CCc2nc(N)sc2C1 [Compound 10] | excellent |  | 
full agonists | CCCN(CC[C@H]1CC[C@H](NC(=O)c2cccc(-c3noc(C)n3)c2)CC1)[C@H]1CCc2nc(N)sc2C1 [Compound 38] |  |  | 
 | Cc1ncoc1-c1nnc(SCCCN2CC3CC3(c3ccc(C(F)(F)F)cc3F)C2)n1C (stereo not shown) [Compound 3] |  | good | inhibition at the hERG channel (hERG potassium channel): weak inhibition; oral bioavailability [4]: excellent; inhibition on all the P450 isoforms (P450 isoforms): weak inhibition
